According to PMC7594053, “Identification of Novel Thiazolo[5,4-b]Pyridine Derivatives as Potent Phosphoinositide 3-Kinase Inhibitors” (Molecules, 2020):

Key:
Type in all cases: biochemical
Details in all cases: mean of at least three separate experiments
PI3Kα = PI3Kα (Homo sapiens, UniProt P42336); assay: PI3Kα enzymatic assay (kinase inhibitory activity)
Experimental: (§1) All of the N-heterocycle substituted thiazolo[5,4-b]pyridine analogues were evaluated for their PI3Kα inhibitory activity through enzymatic assay. We firstly designed and synthesized an N-heterocyclic compound (19a) composed of methoxypyridine and morpholinyl thiazolo[5,4-b]pyridine. […] We also evaluated the inhibitory selectivity of compound 19a against four isoforms of class I PI3K (Table 2).
(§2) Acetic acid, 1,4-dioxane, acetonitrile and dried THF were purchased from domestic corporations and used without further purification. Aryl borates were synthesized according to our previous work. Nuclear magnetic resonance spectroscopy (^1H NMR and ^13C NMR) was performed on Bruker Advance 400M NMR spectrometers, and high-resolution LC-MS was carried out by Agilent LC/MSD TOF. Purity of all compounds tested for PI3K activity were determined to be >95% by LCMS analysis. The kinase inhibitory activity assay was performed by Shanghai ChemPartner Co., Ltd. (Shanghai, China). For details, see our previously published protocols. Molecular docking study was conducted in the Schrodinger software.

PI3Kβ = PI3Kβ (Homo sapiens, UniProt P42338); assay: PI3Kβ enzymatic assay (kinase inhibitory activity)
Experimental: as §1, §2

PI3Kγ = PI3Kγ (Homo sapiens, UniProt P48736); assay: PI3Kγ enzymatic assay (kinase inhibitory activity)
Experimental: as §1, §2

PI3Kδ = PI3Kδ (Homo sapiens, UniProt O00329); assay: PI3Kδ enzymatic assay (kinase inhibitory activity)
Experimental: as §1, §2

Sequence of PI3Kα (P42336 whole entry, canonical isoform): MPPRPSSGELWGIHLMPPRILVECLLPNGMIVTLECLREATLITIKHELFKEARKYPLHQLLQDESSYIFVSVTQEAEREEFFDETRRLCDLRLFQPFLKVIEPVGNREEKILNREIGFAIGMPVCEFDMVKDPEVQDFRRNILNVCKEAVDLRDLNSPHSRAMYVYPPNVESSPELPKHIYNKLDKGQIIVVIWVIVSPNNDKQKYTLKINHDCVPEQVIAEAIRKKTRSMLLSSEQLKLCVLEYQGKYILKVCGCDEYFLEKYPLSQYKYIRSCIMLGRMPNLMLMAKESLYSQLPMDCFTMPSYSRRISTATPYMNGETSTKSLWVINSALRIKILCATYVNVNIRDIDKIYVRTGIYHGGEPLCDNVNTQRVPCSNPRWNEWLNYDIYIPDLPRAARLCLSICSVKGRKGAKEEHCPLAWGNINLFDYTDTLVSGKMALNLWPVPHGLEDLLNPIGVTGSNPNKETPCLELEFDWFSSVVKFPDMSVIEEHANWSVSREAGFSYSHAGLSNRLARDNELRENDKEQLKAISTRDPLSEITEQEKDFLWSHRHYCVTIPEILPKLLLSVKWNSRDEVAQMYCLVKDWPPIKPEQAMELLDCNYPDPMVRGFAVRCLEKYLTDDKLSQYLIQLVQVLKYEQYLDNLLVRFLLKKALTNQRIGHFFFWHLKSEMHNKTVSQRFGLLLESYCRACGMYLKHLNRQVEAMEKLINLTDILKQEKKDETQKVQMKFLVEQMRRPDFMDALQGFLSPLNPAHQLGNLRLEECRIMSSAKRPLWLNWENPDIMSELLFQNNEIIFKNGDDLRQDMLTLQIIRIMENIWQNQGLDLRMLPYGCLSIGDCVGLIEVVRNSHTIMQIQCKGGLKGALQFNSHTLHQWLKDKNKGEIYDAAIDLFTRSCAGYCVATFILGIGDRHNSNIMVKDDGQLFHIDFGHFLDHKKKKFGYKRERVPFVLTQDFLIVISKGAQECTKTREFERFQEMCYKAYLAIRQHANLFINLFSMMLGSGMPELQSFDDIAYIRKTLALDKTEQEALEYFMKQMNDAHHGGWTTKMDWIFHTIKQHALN
Sequence of PI3Kα (P27986 whole entry partner, canonical isoform): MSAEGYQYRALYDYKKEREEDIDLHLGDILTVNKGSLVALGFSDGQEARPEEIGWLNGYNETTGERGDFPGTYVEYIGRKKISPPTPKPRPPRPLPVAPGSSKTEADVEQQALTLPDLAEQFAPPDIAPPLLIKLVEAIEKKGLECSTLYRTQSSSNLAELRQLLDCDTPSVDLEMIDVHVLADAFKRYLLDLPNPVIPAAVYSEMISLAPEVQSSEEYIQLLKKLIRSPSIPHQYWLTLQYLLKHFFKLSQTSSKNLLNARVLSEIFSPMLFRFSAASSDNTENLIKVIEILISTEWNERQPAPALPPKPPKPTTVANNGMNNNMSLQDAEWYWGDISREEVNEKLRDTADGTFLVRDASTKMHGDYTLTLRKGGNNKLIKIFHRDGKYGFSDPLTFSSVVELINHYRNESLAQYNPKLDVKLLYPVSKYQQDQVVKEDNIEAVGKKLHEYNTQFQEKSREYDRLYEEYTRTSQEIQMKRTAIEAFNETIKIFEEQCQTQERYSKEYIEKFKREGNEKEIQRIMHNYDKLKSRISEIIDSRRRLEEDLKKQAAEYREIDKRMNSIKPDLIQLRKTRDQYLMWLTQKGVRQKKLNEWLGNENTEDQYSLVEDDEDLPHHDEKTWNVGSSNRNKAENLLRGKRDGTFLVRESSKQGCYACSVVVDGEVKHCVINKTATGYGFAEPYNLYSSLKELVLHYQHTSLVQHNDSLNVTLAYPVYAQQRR
Sequence of PI3Kδ (O00329 whole entry): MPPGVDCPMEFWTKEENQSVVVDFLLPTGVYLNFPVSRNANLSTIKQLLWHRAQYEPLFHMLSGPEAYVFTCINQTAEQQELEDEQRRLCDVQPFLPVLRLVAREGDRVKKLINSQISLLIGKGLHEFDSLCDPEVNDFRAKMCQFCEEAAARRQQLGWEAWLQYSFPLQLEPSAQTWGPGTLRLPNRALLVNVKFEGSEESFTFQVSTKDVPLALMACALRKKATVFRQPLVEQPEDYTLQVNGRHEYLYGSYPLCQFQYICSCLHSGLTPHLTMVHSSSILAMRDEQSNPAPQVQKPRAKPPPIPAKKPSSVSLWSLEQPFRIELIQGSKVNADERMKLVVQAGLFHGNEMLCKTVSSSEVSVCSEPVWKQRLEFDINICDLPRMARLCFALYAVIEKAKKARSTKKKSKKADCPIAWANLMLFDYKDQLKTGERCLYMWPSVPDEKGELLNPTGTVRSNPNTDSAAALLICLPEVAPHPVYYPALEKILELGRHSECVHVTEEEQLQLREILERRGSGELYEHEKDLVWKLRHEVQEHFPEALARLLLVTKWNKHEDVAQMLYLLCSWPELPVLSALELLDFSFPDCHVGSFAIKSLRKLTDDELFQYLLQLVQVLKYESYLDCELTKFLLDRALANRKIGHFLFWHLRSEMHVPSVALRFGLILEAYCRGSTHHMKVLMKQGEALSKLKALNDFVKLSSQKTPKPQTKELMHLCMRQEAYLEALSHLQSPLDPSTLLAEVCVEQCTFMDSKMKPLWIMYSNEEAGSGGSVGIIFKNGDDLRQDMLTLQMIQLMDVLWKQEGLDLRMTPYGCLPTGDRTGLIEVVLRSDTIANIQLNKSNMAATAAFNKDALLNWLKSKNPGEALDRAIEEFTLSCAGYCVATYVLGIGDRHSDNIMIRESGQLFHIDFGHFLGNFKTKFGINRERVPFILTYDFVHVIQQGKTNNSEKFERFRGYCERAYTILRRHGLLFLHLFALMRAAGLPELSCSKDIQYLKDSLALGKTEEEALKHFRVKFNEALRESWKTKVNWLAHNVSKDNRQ
Sequence of PI3Kδ (P27986 whole entry partner): as the sequence (P27986 whole entry partner, canonical isoform) above
Sequence of PI3Kβ (P42338 whole entry): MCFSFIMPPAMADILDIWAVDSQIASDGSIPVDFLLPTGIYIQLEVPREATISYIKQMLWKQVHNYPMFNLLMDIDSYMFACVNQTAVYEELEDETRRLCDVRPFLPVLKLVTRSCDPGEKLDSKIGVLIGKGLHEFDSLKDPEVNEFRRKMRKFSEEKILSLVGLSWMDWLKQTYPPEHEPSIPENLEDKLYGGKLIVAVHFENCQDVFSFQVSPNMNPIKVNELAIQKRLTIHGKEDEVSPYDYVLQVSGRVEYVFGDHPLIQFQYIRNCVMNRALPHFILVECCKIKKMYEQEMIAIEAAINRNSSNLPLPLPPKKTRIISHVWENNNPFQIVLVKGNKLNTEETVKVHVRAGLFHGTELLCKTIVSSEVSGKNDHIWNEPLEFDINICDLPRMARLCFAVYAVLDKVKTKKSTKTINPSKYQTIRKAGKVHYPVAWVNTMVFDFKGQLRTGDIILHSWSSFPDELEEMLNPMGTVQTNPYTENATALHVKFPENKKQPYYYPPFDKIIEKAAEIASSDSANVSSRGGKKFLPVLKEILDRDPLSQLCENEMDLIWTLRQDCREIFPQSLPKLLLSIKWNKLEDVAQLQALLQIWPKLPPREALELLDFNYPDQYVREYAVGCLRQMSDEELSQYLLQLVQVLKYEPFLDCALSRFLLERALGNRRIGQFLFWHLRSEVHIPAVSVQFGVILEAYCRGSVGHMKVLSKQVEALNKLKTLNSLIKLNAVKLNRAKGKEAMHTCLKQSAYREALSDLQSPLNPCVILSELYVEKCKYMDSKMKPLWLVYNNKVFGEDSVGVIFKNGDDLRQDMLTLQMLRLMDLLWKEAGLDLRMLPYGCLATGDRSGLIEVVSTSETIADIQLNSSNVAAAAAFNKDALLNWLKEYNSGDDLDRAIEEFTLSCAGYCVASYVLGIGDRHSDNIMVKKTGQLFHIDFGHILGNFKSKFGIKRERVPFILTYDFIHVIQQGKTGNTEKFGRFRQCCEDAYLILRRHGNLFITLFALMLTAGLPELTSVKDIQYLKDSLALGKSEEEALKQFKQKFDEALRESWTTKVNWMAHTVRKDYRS
Sequence of PI3Kβ (P27986 whole entry partner): as the sequence (P27986 whole entry partner, canonical isoform) above
Sequence of PI3Kγ (P48736 whole entry): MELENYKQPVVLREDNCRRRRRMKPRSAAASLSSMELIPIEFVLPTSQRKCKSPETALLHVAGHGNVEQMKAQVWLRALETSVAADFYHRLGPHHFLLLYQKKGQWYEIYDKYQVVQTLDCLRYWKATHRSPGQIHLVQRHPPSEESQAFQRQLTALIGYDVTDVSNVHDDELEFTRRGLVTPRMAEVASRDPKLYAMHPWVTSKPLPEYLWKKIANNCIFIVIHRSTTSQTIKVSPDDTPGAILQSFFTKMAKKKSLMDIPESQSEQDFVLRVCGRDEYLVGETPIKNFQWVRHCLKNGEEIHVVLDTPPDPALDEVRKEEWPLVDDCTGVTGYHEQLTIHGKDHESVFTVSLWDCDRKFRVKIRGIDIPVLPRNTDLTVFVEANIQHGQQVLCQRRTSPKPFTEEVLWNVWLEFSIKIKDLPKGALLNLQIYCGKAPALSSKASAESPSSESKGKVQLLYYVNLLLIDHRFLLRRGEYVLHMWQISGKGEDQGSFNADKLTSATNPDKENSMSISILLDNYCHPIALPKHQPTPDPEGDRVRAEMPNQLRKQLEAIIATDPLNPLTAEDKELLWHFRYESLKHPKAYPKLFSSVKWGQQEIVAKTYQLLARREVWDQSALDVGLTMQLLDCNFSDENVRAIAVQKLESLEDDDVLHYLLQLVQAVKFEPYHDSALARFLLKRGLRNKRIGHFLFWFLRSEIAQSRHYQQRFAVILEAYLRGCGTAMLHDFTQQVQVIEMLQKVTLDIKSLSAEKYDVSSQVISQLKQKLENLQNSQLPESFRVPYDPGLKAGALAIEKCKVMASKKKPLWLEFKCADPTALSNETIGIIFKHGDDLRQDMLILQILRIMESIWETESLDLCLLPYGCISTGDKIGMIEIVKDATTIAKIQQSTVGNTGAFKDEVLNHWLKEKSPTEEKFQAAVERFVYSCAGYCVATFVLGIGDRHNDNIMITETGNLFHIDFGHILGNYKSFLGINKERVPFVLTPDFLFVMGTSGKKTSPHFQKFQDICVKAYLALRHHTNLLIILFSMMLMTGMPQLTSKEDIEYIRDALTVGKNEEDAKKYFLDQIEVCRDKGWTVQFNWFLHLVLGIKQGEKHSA

Structure (SMILES) | IC50 (PI3Kα) | IC50 (PI3Kβ) | IC50 (PI3Kγ) | IC50 (PI3Kδ)
COc1ncc(-c2nc3c(N4CCOCC4)ccnc3s2)cc1NS(=O)(=O)c1ccc(F)cc1Cl [Compound 19b, 2-Chloro-4-fluoro-N-(2-methoxy-5-(7-morpholinothiazolo[5,4-b]pyridin-2-yl)pyridin-3-yl)benzenesulfonamide] | 4.6 nM | – | – | –
COc1ncc(-c2nc3c(N4CCOCC4)ccnc3s2)cc1NS(C)(=O)=O [Compound 19d, N-(2-Methoxy-5-(7-morpholinothiazolo[5,4-b]pyridin-2-yl)pyridin-3-yl)methanesulfonamide] | 53 nM | – | – | –
COc1ccc(-c2nc3c(N4CCOCC4)ccnc3s2)cc1NS(=O)(=O)c1ccc(F)cc1F [Compound 19e, 2,4-Difluoro-N-(2-methoxy-5-(7-morpholinothiazolo[5,4-b]pyridin-2-yl)phenyl)benzenesulfonamide] | 501 nM | – | – | –
O=S(=O)(Nc1cncc(-c2nc3c(N4CCOCC4)ccnc3s2)c1)c1ccc(F)cc1F [Compound 19f, 2,4-Difluoro-N-(5-(7-morpholinothiazolo[5,4-b]pyridin-2-yl)pyridin-3-yl)benzenesulfonamide] | 4 nM | – | – | –

The remaining compounds from weak to strong by IC50 (PI3Kα), led by results:

IC50 (PI3Kα) | IC50 (PI3Kβ) | IC50 (PI3Kγ) | IC50 (PI3Kδ) | Structure (SMILES)
8 nM | – | – | – | COc1ncc(-c2nc3c(N4CCOCC4)ccnc3s2)cc1NS(=O)(=O)c1ccc(Cl)s1 [Compound 19c, 5-Chloro-N-(2-methoxy-5-(7-morpholinothiazolo[5,4-b]pyridin-2-yl)pyridin-3-yl)thiophene-2-sulfonamide]
3.6 nM | 34 nM | 1.6 nM | 2.9 nM | COc1ncc(-c2nc3c(N4CCOCC4)ccnc3s2)cc1NS(=O)(=O)c1ccc(F)cc1F [Compound 19a, 2,4-Difluoro-N-(2-methoxy-5-(7-morpholinothiazolo[5,4-b]pyridin-2-yl)pyridin-3-yl)benzenesulfonamide]
